The record followed here is US20240424113A1, “CONJUGATES COMPRISING ANTIFUNGALS AND HEAT SHOCK PROTEIN 90 (HSP90) INHIBITORS AND METHODS OF USE THEREOF” (Bright Angel Therapeutics Inc., priority 2021, published 2024).

In brackets after ≈: the same amount, converted by molar mass.

In data set [1] the target is Hsp90 Nuclear Binding Domain (NBD) (Candida albicans (strain SC5314 / ATCC MYA-2876) (Yeast), UniProt P46598). Put plainly: Surface Plasmon Resonance (SPR) binding, C. albicans Hsp90 NBD. The following applies: biotinylated Hsp90 NBD on streptavidin chip, 25° C., 1:1 binding model. An outline of the steps:
(§1)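 Biacore S200 at 25° C; AviTag-biotinylated recombinant Hsp90 NBD captured on streptavidin chip at 2000-2500 RU. Compound dilution series run in HBS-P pH 7.4 with 2% DMSO at 40 μL/min, 60 s association and 600 s dissociation. Sensorgrams fitted to a 1:1 binding model.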

In data set [2] the target is Hsp90 Nuclear Binding Domain (NBD) (Aspergillus fumigatus, UniProt P40292). Put plainly: Surface Plasmon Resonance (SPR) binding, A. fumigatus Hsp90 NBD. The conditions noted are these: biotinylated Hsp90 NBD on streptavidin chip, 25° C., 1:1 binding model; NB undefined. An outline of the steps:
as §1

The test system of another data set is CaCl2. As to the kind of experiment: Antifungal sensitivity testing (broth microdilution MIC). The data set is classed as cell-based. The following applies: 96-well broth microdilution. An outline of the steps: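 Broth microdilution MIC per a modified published protocol; compounds dissolved in DMSO, fluconazole in water; duplicates in at least two independent experiments. Fungicidal activity checked by spotting MIC-plate cultures onto YPD agar, read after 24 h at 30° C.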

Another data set has as its system HepG2 cells. As to the kind of experiment: Mammalian cell toxicity (Cell Titer-Glo). The data set is classed as cell-based. How it is done:
Mammalian Cell Toxicity. HepG2 cells were seeded overnight at 500 cells/well in 384-well plate, then incubated with compounds (10-point concentration titration) for 48 h. Cell Titer-Glo® reagent ([…]) was added to each well and after 10-minute incubation at room temperature the luminescent signal was measured using an Envision plate reader (Perkin Elmer).
In general terms: ATP-based viability assays read luminescence as a measure of living cells.

Chain of Hsp90 Nuclear Binding Domain (NBD) (Aspergillus fumigatus, UniProt P40292) (P40292 whole entry, looked up, the tested form may be a part): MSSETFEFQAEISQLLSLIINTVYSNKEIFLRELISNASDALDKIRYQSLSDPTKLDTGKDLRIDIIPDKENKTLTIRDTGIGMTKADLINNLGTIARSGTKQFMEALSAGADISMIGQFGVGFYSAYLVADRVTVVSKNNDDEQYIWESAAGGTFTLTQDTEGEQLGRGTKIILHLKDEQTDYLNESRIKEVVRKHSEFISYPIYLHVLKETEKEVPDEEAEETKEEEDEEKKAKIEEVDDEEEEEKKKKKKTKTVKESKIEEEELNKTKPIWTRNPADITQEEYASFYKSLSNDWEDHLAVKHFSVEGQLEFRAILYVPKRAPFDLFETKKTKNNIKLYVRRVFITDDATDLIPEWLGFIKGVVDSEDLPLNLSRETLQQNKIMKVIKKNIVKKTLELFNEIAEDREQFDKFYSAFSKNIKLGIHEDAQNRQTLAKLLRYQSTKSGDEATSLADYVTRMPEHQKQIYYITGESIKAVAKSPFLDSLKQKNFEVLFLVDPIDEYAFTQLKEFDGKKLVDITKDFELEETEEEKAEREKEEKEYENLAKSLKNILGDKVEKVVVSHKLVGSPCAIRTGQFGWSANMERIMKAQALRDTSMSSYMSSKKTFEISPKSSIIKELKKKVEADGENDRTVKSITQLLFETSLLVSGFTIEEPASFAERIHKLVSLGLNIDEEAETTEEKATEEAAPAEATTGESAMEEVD
Chain of Hsp90 Nuclear Binding Domain (NBD) (Candida albicans (strain SC5314 / ATCC MYA-2876) (Yeast), UniProt P46598) (P46598 1-218 limits assumed): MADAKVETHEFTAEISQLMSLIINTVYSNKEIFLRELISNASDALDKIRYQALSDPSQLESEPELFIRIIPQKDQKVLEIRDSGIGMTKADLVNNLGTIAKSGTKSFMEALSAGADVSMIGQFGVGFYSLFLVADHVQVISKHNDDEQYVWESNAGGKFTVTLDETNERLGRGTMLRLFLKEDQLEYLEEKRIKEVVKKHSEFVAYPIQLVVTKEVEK

Take `Nc1nc2sc(CNCC3CCN(CC(O)(Cn4cncn4)c4ccc(F)cc4F)CC3)cc2n(-c2ccc3c(c2)N(c2ccccc2)CCO3)c1=O` (stereo not drawn) [Compound I-67, 3-amino-6-((((1-(2-(2,4-difluorophenyl)-2-hydroxy-3-(1H-1,2,4-triazol-1-yl)propyl)piperidin-4-yl)methyl)amino)methyl)-1-(4-phenyl-3,4-dihydro-2H-benzo[b][1,4]oxazin-6-yl)thieno[2,3-b]pyrazin-2(1H)-one]: the Kd in data set [1] is 0.402 µM; in data set [2], 0.503 µM. The MIC50 with CaCl2 (Table 4) and with CaCl2 (Table 6) was 2.25 µM (≈ 1.66 µg/mL) throughout. The “HepG2 MIC50” value in the data set on HepG2 cells (Table 6, 48 h incubation) turned out to be 4.7 µM.

In the case of `Nc1nc2sc(C(=O)N[C@@H]3CCN(CC[C@@](O)(Cn4cncn4)c4ccc(F)cc4F)C3)cc2n(-c2ccc3c(c2)N(c2ccccc2)CCO3)c1=O` [Compound I-70, 3-amino-N-((R)-1-((S)-3-(2,4-difluorophenyl)-3-hydroxy-4-(1H-1,2,4-triazol-1-yl)butyl)pyrrolidin-3-yl)-2-oxo-1-(4-phenyl-3,4-dihydro-2H-benzo[b][1,4]oxazin-6-yl)-1,2-dihydrothieno[2,3-b]pyrazine-6-carboxamide], the Kd in data set [1] amounted to 0.0003 µM; in data set [2], 0.0029 µM. Also, the MIC50 against CaCl2 (Table 4) and in the data set with CaCl2 (Table 6) was 5.75 µM (≈ 4.25 µg/mL) in each case. Moreover, the “HepG2 MIC50” value in the data set with HepG2 cells (Table 6, 48 h incubation) is 1.5 µM.

Regarding `Nc1nc2sc(CNC3CCN(CCC(O)(Cn4cncn4)c4ccc(F)cc4F)CC3)cc2n(-c2ccc3c(c2)N(c2ccccc2)CCO3)c1=O` (stereo not drawn) [Compound I-72, 3-amino-6-(((1-(3-(2,4-difluorophenyl)-3-hydroxy-4-(1H-1,2,4-triazol-1-yl)butyl)piperidin-4-yl)amino)methyl)-1-(4-phenyl-3,4-dihydro-2H-benzo[b][1,4]oxazin-6-yl)thieno[2,3-b]pyrazin-2(1H)-one], the Kd amounted to 0.121 µM in data set [1] and 0.197 µM in data set [2]. The MIC50 against CaCl2 (Table 4) and with CaCl2 (Table 6) was 7.5 µM (≈ 5.55 µg/mL) throughout. The “HepG2 MIC50” value in the data set on HepG2 cells (Table 6, 48 h incubation) came out at 4.6 µM.

In the case of `CC(F)(F)COC(=O)N1Cc2nc(N)nc(-c3c(Cl)cc(Cl)cc3OCCC(O)(Cn3cncn3)c3ccc(F)cc3F)c2C1` (stereo not drawn) [Compound I-115, 2,2-difluoropropyl-2-amino-4-(2,4-dichloro-6-(3-(2,4-difluorophenyl)-3-hydroxy-4-(1H-1,2,4-triazol-1-yl)butoxy)phenyl)-5,7-dihydro-6H-pyrrolo[3,4-d]pyrimidine-6-carboxylate], the Kd was 1.2 µM in data set [1] and 1.17 µM in data set [2]. Also, the MIC50 with CaCl2 (Table 4) and against CaCl2 (Table 6) was 6.5 µM (≈ 4.36 µg/mL) in each case. The “HepG2 MIC50” value in the data set with HepG2 cells (Table 6, 48 h incubation) is >20 µM.

As for `Nc1nc2sc(CNC3CCN(CCCCCC(O)(Cn4cncn4)c4ccc(F)cc4F)CC3)cc2n(-c2ccc3c(c2)N(c2ccccc2)CCO3)c1=O` (stereo not drawn) [Compound I-118, 3-amino-6-(((1-(6-(2,4-difluorophenyl)-6-hydroxy-7-(1H-1,2,4-triazol-1-yl)heptyl)piperidin-4-yl)amino)methyl)-1-(4-phenyl-3,4-dihydro-2H-benzo[b][1,4]oxazin-6-yl)thieno[2,3-b]pyrazin-2(1H)-one], the figures for the Kd in data set [1] and in data set [2] were 0.191 µM and 0.406 µM, respectively. Besides, the MIC50 in the data set on CaCl2 (Table 4) and against CaCl2 (Table 6) was 2 µM (≈ 1.56 µg/mL) each time. Also, the “HepG2 MIC50” value in the data set on HepG2 cells (Table 5, 48 h incubation) worked out at 3 µM; with HepG2 cells (Table 6, 48 h incubation), 3 µM.

Regarding `Nc1nc2sc(CNCC3CCN(C[C@@](O)(Cn4cncn4)c4ccc(F)cc4F)CC3)cc2n(-c2ccc3c(c2)N(c2ccccc2)CCO3)c1=O` [Compound I-122, (R)-3-amino-6-((((1-(2-(2,4-difluorophenyl)-2-hydroxy-3-(1H-1,2,4-triazol-1-yl)propyl)piperidin-4-yl)methyl)amino)methyl)-1-(4-phenyl-3,4-dihydro-2H-benzo[b][1,4]oxazin-6-yl)thieno[2,3-b]pyrazin-2(1H)-one], the Kd was found to be 1.63 µM in data set [1] and 1.9 µM in data set [2]. The MIC50 against CaCl2 (Table 4) and in the data set on CaCl2 (Table 6) was 6.5 µM (≈ 4.81 µg/mL) throughout. In addition, the “HepG2 MIC50” value with HepG2 cells (Table 6, 48 h incubation) stood at 14.3 µM.

For `Nc1nc2sc(CN[C@H]3CCCN(C[C@](O)(Cn4cncn4)c4ccc(F)cc4F)C3)cc2n(-c2ccc3c(c2)N(c2ccccc2)CCO3)c1=O` [Compound I-130, 3-amino-6-((((S)-1-((S)-2-(2,4-difluorophenyl)-2-hydroxy-3-(1H-1,2,4-triazol-1-yl)propyl)piperidin-3-yl)amino)methyl)-1-(4-phenyl-3,4-dihydro-2H-benzo[b][1,4]oxazin-6-yl)thieno[2,3-b]pyrazin-2(1H)-one], the Kd in data set [1] was 1.58 µM; in data set [2], 2.19 µM. For the same compound, the MIC50 with CaCl2 (Table 4) and against CaCl2 (Table 6) was 1.75 µM (≈ 1.27 µg/mL) in each case. The “HepG2 MIC50” value in the data set on HepG2 cells (Table 5, 48 h incubation) is >20 µM; in the data set on HepG2 cells (Table 6, 48 h incubation), >20 µM.

For `Nc1nc2sc(CNC3CCN(CC[C@@](O)(Cn4cncn4)c4ccc(F)cc4F)CC3)cc2n(-c2ccc3c(c2)N(c2ccccc2)CCO3)c1=O` [Compound I-133, (S)-3-amino-6-(((1-(3-(2,4-difluorophenyl)-3-hydroxy-4-(1H-1,2,4-triazol-1-yl)butyl)piperidin-4-yl)amino)methyl)-1-(4-phenyl-3,4-dihydro-2H-benzo[b][1,4]oxazin-6-yl)thieno[2,3-b]pyrazin-2(1H)-one], the Kd was found to be 0.3 µM in data set [1] and 0.62 µM in data set [2]. Moreover, the MIC50 in the data set on CaCl2 (Table 4) and against CaCl2 (Table 6) was 2.13 µM (≈ 1.58 µg/mL) in each case. Further, in the data set on HepG2 cells (Table 6, 48 h incubation), the “HepG2 MIC50” value came out at 16.8 µM.

Consider `Nc1nc2sc(CN3CCC(NCC(O)(Cn4cncn4)c4ccc(F)cc4F)CC3)cc2n(-c2ccc3c(c2)N(c2ccccc2)CCO3)c1=O` (stereo not drawn) [Compound I-134, 3-amino-6-((4-((2-(2,4-difluorophenyl)-2-hydroxy-3-(1H-1,2,4-triazol-1-yl)propyl)amino)piperidin-1-yl)methyl)-1-(4-phenyl-3,4-dihydro-2H-benzo[b][1,4]oxazin-6-yl)thieno[2,3-b]pyrazin-2(1H)-one], for which the Kd worked out at 0.665 µM in data set [1] and 1.05 µM in data set [2]. Also, the MIC50 in the data set with CaCl2 (Table 4) and against CaCl2 (Table 6) was 3.13 µM (≈ 2.27 µg/mL) throughout. Besides, the “HepG2 MIC50” value with HepG2 cells (Table 6, 48 h incubation) came to 15 µM.

Regarding `Nc1nc2sc(CNC3CCN(CC(=O)OCCC(O)(Cn4cncn4)c4ccc(F)cc4F)CC3)cc2n(-c2ccc3c(c2)N(c2ccccc2)CCO3)c1=O` (stereo not drawn) [Compound I-136, 3-(2,4-difluorophenyl)-3-hydroxy-4-(1H-1,2,4-triazol-1-yl)butyl 2-(4-(((3-amino-2-oxo-1-(4-phenyl-3,4-dihydro-2H-benzo[b][1,4]oxazin-6-yl)-1,2-dihydrothieno[2,3-b]pyrazin-6-yl)methyl)amino)piperidin-1-yl)acetate], the Kd in data set [1] was 0.271 µM; in data set [2], 0.529 µM. Besides, the MIC50 against CaCl2 (Table 4) and in the data set on CaCl2 (Table 6) was 6.25 µM (≈ 4.99 µg/mL) each time. For the same compound, the “HepG2 MIC50” value in the data set on HepG2 cells (Table 6, 48 h incubation) came out at 19.4 µM.

Regarding `CC1CC(NCc2cc3c(nc(N)c(=O)n3-c3ccc4c(c3)N(c3ccccc3)CCO4)s2)CCN1CC(O)(Cn1cncn1)c1ccc(F)cc1F` (stereo not drawn) [Compound I-138, 3-amino-6-(((1-(2-(2,4-difluorophenyl)-2-hydroxy-3-(1H-1,2,4-triazol-1-yl)propyl)-2-methylpiperidin-4-yl)amino)methyl)-1-(4-phenyl-3,4-dihydro-2H-benzo[b][1,4]oxazin-6-yl)thieno[2,3-b]pyrazin-2(1H)-one], the Kd worked out at 0.445 µM in data set [1] and 0.674 µM in data set [2]. Moreover, the MIC50 in the data set with CaCl2 (Table 4) and against CaCl2 (Table 6) was 2.3 µM (≈ 1.7 µg/mL) in each case. For the same compound, the “HepG2 MIC50” value with HepG2 cells (Table 6, 48 h incubation) worked out at 7.9 µM.

As to `Nc1nc2sc(CNC3CCN(CC(O)(Cn4ccnc4)c4ccc(F)cc4F)CC3)cc2n(-c2ccc3c(c2)N(c2ccccc2)CCO3)c1=O` (stereo not drawn) [Compound I-139, 3-amino-6-(((1-(2-(2,4-difluorophenyl)-2-hydroxy-3-(1H-imidazol-1-yl)propyl)piperidin-4-yl)amino)methyl)-1-(4-phenyl-3,4-dihydro-2H-benzo[b][1,4]oxazin-6-yl)thieno[2,3-b]pyrazin-2(1H)-one], the values for the Kd in data set [1] and in data set [2] were 0.151 µM and 0.246 µM, respectively. In addition, the MIC50 against CaCl2 (Table 4) and with CaCl2 (Table 6) was 1.2 µM (≈ 0.87 µg/mL) in each case. Besides, the “HepG2 MIC50” value in the data set on HepG2 cells (Table 5, 48 h incubation) is 3.9 µM; with HepG2 cells (Table 6, 48 h incubation), 3.9 µM.

What is called Kd is a measure of binding affinity in units of concentration. Lower therefore signals a tighter complex. In general, MIC50 refers to an inhibitory concentration at the 50% level, which refers to growth in some studies and to a panel of isolates in others. Read a high MIC50 as lower susceptibility.
